The text below walks through data of PMC6423038, “Deferiprone: Pan-selective Histone Lysine Demethylase Inhibition Activity and Structure Activity Relationship Study” (Scientific Reports, 2019).

The test system of test [1] is HP1-mediated heterochromatin gene repression in CiA:Oct4 embryonic stem cells. As to the kind of experiment: HP1-recruitment assay dose curve (CiA:Oct4, with CIP-rapamycin), flow cytometry. The conditions noted are these: 48 h with CIP-rapamycin recruitment of HP1; for concentration reaching maximum inhibition of heterochromatin formation / gene repression: doses 250 nM–10 µM. Type of test: cell-based, mouse. The source says:
To elucidate the effect of DFP-based KDM inhibitors on chromatin dynamics, we profiled them in an intracellular assay which measures heterochromatin formation speed. The chromatin in vivo assay (CiA) leverages chemical induced proximity (CIP) to recruit heterochromatin protein 1 (HP1) to a modified Oct4 locus. This reporter system is composed of tandem arrays of Gal4 and zinc finger DNA binding domains in the promoter of one allele of Oct4, where the gene was replaced by a nuclear eGFP reporter. Protein fusions of Gal4-FKBP and FRB-HP1 allow for direct chemical recruitment of HP1 to the CiA:Oct4 reporter locus upon addition of the chemical inducer of proximity (CIP)-rapamycin. After CIP-rapamycin addition, HP1 is recruited to the reporter locus and brings histone methyltransferase enzymes to the chromatin reporter resulting in the repressive H3K9me3 mark being deposited (Fig. 10A). H3K9me3 deposition is the signature mark of heterochromatin and is coupled with gene silencing and loss of GFP expression (Fig. 10B)[33]. Others have shown that H3K4me3 marked nucleosomes impede H3K9 methyltransferase activity. Thus, we postulate that the active H3K4me3 mark must be removed by KDM enzymes as part of the transformation from euchromatin to heterochromatin. Inhibition of KDMs, specifically those targeting H3K4me3, would result in a decrease in H3K9me3 accumulation, which would be measured in our assay as an increase in GFP positive cells.
To determine the effect of DFP-based KDM inhibitors on HP1-mediated gene repression, we treated CiA:Oct4 embryonic stem (ES) cells with doses of representative compounds ranging from 10 µM–250 nM for 48 h with CIP-rapamycin recruitment of HP1 (Fig. 10C). […] The percentage of GFP(+) cells was determined by flow cytometry as indicated in representative histograms (Supplemental Fig. S8).
(§1) Day 0, CiA:Oct4 N118/163 cells were grown in ES media and seeded at a density of 10,000 cells per well in 100 μL media (100,000 cells mL^−1) on gelatin coated 96 well plates. Day 1, culture media was aspirated and replaced with 100 µL ES media containing +/− 6 nM rapamycin. 10 µM, 5 µM, 2.5 µM, 1 µM, 500 nM, and 250 nM concentrations of compound or DMSO were added using a TTP Labtech Mosquito HTS liquid handler. Days 2, fresh ES media +/− rapamycin and compound were added as in Day 1. Day 3, cells were washed with PBS and trypsinized using 0.25% trypsin-EDTA. Trypsin was quenched with serum. Cells were resuspended by pipetting in preparation for flow cytometry analysis.
(§2) Flow cytometry data was acquired using the Intellicyt iQue Screener and analyzed with FlowJo software.
The CiA:Oct4 recruitment system in mouse embryonic stem cells contains Gal4 and Zinc finger DNA binding arrays and a downstream nuclear eGFP gene in place of a single Oct4 allele as previously described.^30 The CiA:Oct4 N118/N163 cell line containing viral integrations of N118 and N163 plasmids (N118- nLV EF-1α-Gal-FKBPx1-HA-PGK-Blast, N163- nLV EF-1α-HP1α (CS)-Frbx2(Frb+FrbWobb)-V5-PGK-Puro) was used for inhibition of HP1-mediated heterochromatin studies. All plasmids are freely available on addgene.
(§3) HP1-Recruitment Assay Dose Curve. Day 0, CiA:Oct4 N118/163 cells were grown in ES media and seeded at a density of 10,000 cells per well in 100 µL media (100,000 cells mL^-1) on gelatin coated 96 well plates. Day 1, culture media was aspirated and replaced with 100 µL ES media containing +/- 6 nM rapamycin. 10 µM, 5 µM, 2.5 µM, 1 µM, 500 nM, and 250 nM concentrations of compound or DMSO were added using a TTP Labtech Mosquito HTS liquid handler. Days 2, fresh ES media +/- rapamycin and compound were added as in Day 1. Day 3, cells were washed with PBS and trypsinized using 0.25% trypsin-EDTA. Trypsin was quenched with serum. Cells were resuspended by pipetting in preparation for flow cytometry analysis.
Flow Cytometry and Analysis.
A general note: A flow cytometer gives signals particle by particle.

The test system of the next test is MCF-7. Description: Cell viability assay (MTS), antiproliferative activity. The conditions noted are these: Homo sapiens, MCF7, 72 h. Type of test: cell-based. The procedure:
(§4) To preliminarily profile the bioactivity of these compounds, we adopted a streamlined approach which involved screening against KDM6A at two concentrations and evaluating antiproliferative activity against three representative cell lines – MCF-7 (ER(+) BCa), MDA-MB-231 (TNBC BCa) and Vero (a non-transformed cell line as control).
(§5) The In vitro proliferation assay was performed as reported previously[15],[16]. Detailed description of the protocol used is included in the Supplementary Information.
(§6) Cell Viability Assay. All cell lines were purchased form ATCC (Manassas, VA), and they were routinely cultured in different media recommended by the supplier. MCF-7 cells were cultured in non-phenol red DMEM (Corning, Manassas, VA) fortified with 10% charcoal treated fetal bovine serum (FBS; Atlanta Biologicals, GA) and 0.2 mM glutamine (Corning, Manassas, VA), whereas MDA-MB-231, DU-145, and Vero were cultured in DMEM with 10% FBS. […] After 24 h incubation in 37 °C under 5% CO2, cells were treated with serially diluted ligands with final DMSO concentration of 1% and incubated for additional 72 h. MTS (CellTiter 96 Aqueous One Solution Cell Proliferation Assays, Promega, Madison, WI) was added to each well 2.5 h prior to recording the absorbance at 490 nm.

The subject of another test is MDA-MB-231. The test is described as above. Type of test: cell-based. Particulars: Homo sapiens, 72 h. As to the method:
as §4, §5, §6

For a further test, the system named is VERO. The test is described as above. Format: cell-based. The conditions noted are these: Chlorocebus sabaeus, 72 h. As to the method: as §4, §5, §6
The target in another test is T1, KDM6A (UTX) (Homo sapiens, UniProt O15550).
T1 construct: purchased BPS Bioscience
T1 sequence (O15550 whole entry): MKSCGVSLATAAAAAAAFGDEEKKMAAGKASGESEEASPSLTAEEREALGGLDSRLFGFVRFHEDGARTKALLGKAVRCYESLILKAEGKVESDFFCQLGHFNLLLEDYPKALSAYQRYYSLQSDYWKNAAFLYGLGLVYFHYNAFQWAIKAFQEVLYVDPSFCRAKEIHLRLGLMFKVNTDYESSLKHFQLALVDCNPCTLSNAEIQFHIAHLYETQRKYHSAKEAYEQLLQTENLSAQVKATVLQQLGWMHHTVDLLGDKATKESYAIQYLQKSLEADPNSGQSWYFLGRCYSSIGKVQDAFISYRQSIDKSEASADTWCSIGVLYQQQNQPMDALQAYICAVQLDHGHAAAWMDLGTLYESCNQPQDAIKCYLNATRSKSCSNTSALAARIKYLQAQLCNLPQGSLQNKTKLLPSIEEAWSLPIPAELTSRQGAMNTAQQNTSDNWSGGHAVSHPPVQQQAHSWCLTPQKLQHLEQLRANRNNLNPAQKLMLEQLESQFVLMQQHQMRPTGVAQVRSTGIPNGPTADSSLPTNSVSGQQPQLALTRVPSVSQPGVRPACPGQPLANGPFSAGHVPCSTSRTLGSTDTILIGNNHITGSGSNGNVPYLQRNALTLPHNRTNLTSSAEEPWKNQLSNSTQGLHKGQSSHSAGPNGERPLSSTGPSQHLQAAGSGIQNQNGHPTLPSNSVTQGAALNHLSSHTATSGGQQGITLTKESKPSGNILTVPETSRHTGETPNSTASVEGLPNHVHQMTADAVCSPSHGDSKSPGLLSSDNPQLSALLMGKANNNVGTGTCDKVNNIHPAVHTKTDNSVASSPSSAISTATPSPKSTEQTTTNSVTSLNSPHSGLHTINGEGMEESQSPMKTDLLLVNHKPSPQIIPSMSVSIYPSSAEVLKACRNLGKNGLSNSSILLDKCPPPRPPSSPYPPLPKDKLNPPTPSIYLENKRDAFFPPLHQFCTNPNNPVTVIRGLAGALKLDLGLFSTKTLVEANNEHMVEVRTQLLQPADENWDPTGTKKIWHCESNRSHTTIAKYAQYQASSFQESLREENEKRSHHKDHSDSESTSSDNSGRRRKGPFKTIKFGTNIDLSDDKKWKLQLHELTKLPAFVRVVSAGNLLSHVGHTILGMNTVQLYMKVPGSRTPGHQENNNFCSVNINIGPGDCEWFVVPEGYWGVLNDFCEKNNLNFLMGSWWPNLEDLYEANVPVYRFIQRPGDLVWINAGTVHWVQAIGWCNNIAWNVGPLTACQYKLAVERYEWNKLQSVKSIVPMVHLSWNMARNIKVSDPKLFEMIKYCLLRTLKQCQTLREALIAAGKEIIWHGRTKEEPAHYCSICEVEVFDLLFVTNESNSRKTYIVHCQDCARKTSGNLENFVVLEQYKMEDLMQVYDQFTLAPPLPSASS
As to the kind of experiment: KDM cell-free assay (AlphaScreen, BPS Bioscience). The conditions noted are these: for IC50: Fig. 9A, read-out: IC50 (KDM6A inhibition dose response curve). Type of test: biochemical.

In another test the test system is MDA-MB-231 tumors. Description: Mouse xenograft assay, MDA-MB-231 (ER(−)). Type of test: in vivo. Particulars: MDA-MB-231 xenograft.
For another test, the system named is T47D cells. As to the kind of experiment: Viability of T47D cells at three concentrations. Type of test: cell-based, human. The conditions noted are these: Fig. S9. The procedure: To determine the antitumor potential of the DFP-based KDM inhibitors, we investigated the efficacy of a representative example, 2j, in two murine xenograft models of BCa. The xenografts were established using two human BCa cell lines – T47D (ER(+)) and MDA-MB-231 (ER(−)). […] Because our in vitro study was conducted using MCF-7 as a model of ER(+) cell, we first tested the effect of 2j on the viability of T47D cells at three concentrations. […] The effect of 2j on T47D viability mirrored that of its effect on MCF-7, confirming preferential cytotoxicity of the DFP-based agents […]. Once we established that T47D cells are sensitive to 2j, xenografts of T47D and MDA-MB-231 were established in female athymic nude mice (8-week old) by injection of cells (1 × 10^7) into the mammary fat pad as described previously[37],[38]. After the tumor volume reached ~250 mm^3, mice were treated with 2j (25 mg/kg body weight) for 8 weeks. […] Relative to control, 2j caused approx. 81% (4426 vs 884 mm^3) and 70% (5116 vs 1536 mm^3) reduction in the growth of T47D and MDA-MBMB-231 tumors, respectively.

For test [2], the system named is Oct4 GFP expression in CiA:Oct4 embryonic stem cells. As to the kind of experiment: CiA:Oct4 reporter dose response without HP1 recruitment (no CIP-rapamycin), flow cytometry. Type of test: cell-based, mouse. The conditions noted are these: 48 h without HP1 recruitment; for decrease in the percentage of GFP(+) cells: at 2.5 µM.
Text: Embryonic stem cells are sensitive to environmental stimuli which may trigger cell differentiation. During mammalian stem cell differentiation or exposure to toxic compounds, Oct4 is known to be repressed as cells lose reinforcement of the pluripotency transcriptional activation network[35],[36]. Therefore, the CiA:Oct4 reporter without CIP-recruitment of HP1 functions is a valid system to determine how much cell differentiation or toxicity is occurring by measuring the GFP expression levels. To elucidate the effect of DFP-based KDM inhibitors on Oct4 GFP expression in the absence of HP1 recruitment, we performed dose response studies without addition of CIP-rapamycin (Fig. 11A).
as §1, §2, §3
Flow Cytometry and Analysis. Flow cytometry data was acquired using the Intellicyt iQue Screener and analyzed with FlowJo software. Cell populations were gated based on forward and side scatter height. Single cell populations were gated using forward scatter area by forward scatter height. Autofluorescent cells were excluded and the remaining cells were gated into GFP (-) and GFP (+) populations based on DMSO control samples.

[3] abbreviates: Table 5, values calculated by linear regression.

One may read the IC50 as the concentration that inhibits the measured activity by half. What is called inhibition is the share of the control response that was lost under treatment. A high value points to a strong effect. Regarding `Cc1c(O)c(=O)ccn1CCn1cc(-c2ccccc2)nn1` [1a], the “inhibition of heterochromatin formation” value in test [1] (up to 10 µM) is reported as “did not inhibit heterochromatin formation”. Besides, the IC50 in the test with MCF-7 (Table 4) is above 50 µM; with MDA-MB-231 (Table 4), above 50 µM; with VERO (Table 4), above 100 µM. On KDM6A (UTX) (Table 2), this compound came in with an inhibition at 1 µM of 12%. In addition, testing at 10 µM against KDM6A (UTX) (Table 2) gave an inhibition of 96%.
With `COc1cccc(-c2cn(CCCCCn3ccc(=O)c(O)c3C)nn2)c1` [2j], in the test with MDA-MB-231 tumors (athymic nude mice, 25 mg/kg body weight for 8 weeks), the “reduction in the growth of tumors relative to control” value is around 70%. In the test with MDA-MB-231 tumors (25 mg/kg for 8 weeks, control 5116 mm^3), this compound came in with a tumor volume of 1536 mm^3. For the same compound, in test [1], the “increase in the number of GFP positive cells” value was 20%. Further, the “growth of T47D cells” value in the test on T47D cells is “dose-dependent reduction”. Besides, the IC50 with MCF-7 (setting [3]) was 34.1 µM; in the test with MDA-MB-231 (Table 5) it was 10.6 µM; in the test on VERO (Table 5), above 50 µM; at KDM6A (UTX) it was 3200 nM. Also, the inhibition at 1 µM against KDM6A (UTX) (Table 2) is 8%. The compound also returned an inhibition at 10 µM against KDM6A (UTX) (Table 2) of 100%.
`Cc1c(O)c(=O)ccn1CCCCCn1cc(-c2ccc(-c3ccncc3)cc2)nn1` [2t]: in test [2] (only at the 10 µM dose), the “decrease in percentage GFP(+) cells” value was ~ 20%. Moreover, in test [1], the “concentration reaching maximum inhibition of heterochromatin formation / gene repression” value is listed as 10 µM. Also, the IC50 in the test on MCF-7 (setting [3]) is 37.6 µM; with MDA-MB-231 (Table 5), 3.6 µM; in the test on VERO (Table 5), 29.2 µM. This compound showed an inhibition at 1 µM against KDM6A (UTX) (Table 2) of 8%. The same compound came in with an inhibition at 10 µM against KDM6A (UTX) (Table 2) of 99%.
As to `Cc1c(O)c(=O)ccn1CCCCCCn1cc(-c2ccc(-c3ccccc3)cc2)nn1` [2v], the “decrease in the percentage of GFP(+) cells” value (“decrease in the percentage” below) in test [2] is ~ 30%. The “concentration reaching maximum inhibition of heterochromatin formation / gene repression” value in test [1] worked out at 1 µM. The concentration for half-maximal inhibition (IC50) in the test with MCF-7 (Table 5) is above 50 µM; with MDA-MB-231 (Table 5), 2.5 µM; in the test with VERO (Table 5), 4.9 µM. This compound also had an inhibition at 1 µM on KDM6A (UTX) (Table 2) of 12%. The inhibition at 10 µM against KDM6A (UTX) (Table 2) worked out at 49%.
Regarding `COc1ccc2cc(-c3cn(CCCCCCn4ccc(=O)c(O)c4C)nn3)ccc2c1` [2w], in test [2], the “decrease in the percentage” value is on record as ~ 30%. Also, the “concentration reaching maximum inhibition of heterochromatin formation / gene repression” value in test [1] came to 1 µM. For the same compound, the half-maximal inhibitory concentration (IC50) in the test with MCF-7 (Table 5) is above 50 µM; in the test with MDA-MB-231 (Table 5), 1.2 µM; with VERO (Table 5), 3.9 µM. Also, the inhibition at 1 µM against KDM6A (UTX) (Table 2) amounted to 16%. In addition, the inhibition at 10 µM at KDM6A (UTX) (Table 2) was determined as 57%.
Turning to `Cc1c(O)c(=O)ccn1C1CCC(CC2CCC(n3ccc(=O)c(O)c3C)CC2)CC1` (stereo not drawn) [3g], the “decrease in the percentage” value in test [2] is on record as ~ 30%. Besides, the “concentration reaching maximum inhibition of heterochromatin formation / gene repression” value in test [1] worked out at 2.5 µM. For the same compound, the IC50 is 31.1 µM in the test with MCF-7 (Table 6, values calculated by linear regression); 3.5 µM in the test with MDA-MB-231 (Table 6); above 50 µM in the test with VERO (Table 6); 1700 nM at KDM6A (UTX). At KDM6A (UTX) (Table 3), this compound registered an inhibition at 1 µM of 9%. The compound also returned an inhibition at 10 µM against KDM6A (UTX) (Table 3) of 100%.
